Biological target: ATP-dependent translocase ABCB1 (Homo sapiens, UniProt P08183)
Experiment: TP_TRANSPORTER: transepithelial transport of Rhodamine 123 (basal to apical) in Caco-2R cells
Assay type: functional, cell-based

Sequence of ATP-dependent translocase ABCB1 (P08183 whole entry): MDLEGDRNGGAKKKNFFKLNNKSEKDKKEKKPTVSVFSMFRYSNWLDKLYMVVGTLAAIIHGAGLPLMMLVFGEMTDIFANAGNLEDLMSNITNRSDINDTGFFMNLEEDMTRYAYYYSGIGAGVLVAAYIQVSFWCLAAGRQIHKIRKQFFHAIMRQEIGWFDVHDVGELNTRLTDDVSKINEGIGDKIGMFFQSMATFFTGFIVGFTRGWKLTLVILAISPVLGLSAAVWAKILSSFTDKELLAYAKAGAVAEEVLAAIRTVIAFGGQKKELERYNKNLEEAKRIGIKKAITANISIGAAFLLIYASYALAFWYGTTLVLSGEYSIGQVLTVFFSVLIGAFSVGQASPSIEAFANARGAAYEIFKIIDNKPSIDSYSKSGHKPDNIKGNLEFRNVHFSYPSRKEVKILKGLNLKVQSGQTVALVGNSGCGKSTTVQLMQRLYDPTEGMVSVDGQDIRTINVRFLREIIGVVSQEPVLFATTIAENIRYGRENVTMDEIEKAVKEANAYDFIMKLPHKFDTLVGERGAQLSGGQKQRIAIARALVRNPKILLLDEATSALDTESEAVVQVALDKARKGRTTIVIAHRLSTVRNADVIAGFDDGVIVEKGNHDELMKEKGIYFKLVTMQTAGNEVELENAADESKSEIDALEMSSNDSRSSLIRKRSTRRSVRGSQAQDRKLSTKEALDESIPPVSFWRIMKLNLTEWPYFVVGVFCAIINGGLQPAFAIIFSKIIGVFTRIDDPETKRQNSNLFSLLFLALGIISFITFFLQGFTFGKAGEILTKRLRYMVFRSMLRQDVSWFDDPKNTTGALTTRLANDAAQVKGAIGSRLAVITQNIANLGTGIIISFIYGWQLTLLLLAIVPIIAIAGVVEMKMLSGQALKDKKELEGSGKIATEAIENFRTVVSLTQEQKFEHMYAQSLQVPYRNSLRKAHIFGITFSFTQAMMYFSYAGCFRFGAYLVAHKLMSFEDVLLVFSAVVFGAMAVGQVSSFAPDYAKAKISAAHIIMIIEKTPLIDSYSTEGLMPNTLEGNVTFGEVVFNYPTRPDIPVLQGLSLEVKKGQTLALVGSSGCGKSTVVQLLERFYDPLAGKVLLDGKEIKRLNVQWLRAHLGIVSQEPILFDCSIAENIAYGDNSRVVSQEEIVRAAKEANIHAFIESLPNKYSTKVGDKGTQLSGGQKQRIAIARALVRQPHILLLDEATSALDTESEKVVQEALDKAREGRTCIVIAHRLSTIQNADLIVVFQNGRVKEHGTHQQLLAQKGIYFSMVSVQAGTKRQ

| Activity | Compound |
| --- | --- |
| inhibitor [+] | COC[C@H]1O[C@@H]2O[C@H]3[C@H](O)[C@@H](OC)[C@@H](O[C@H]4[C@H](O)[C@@H](OC)[C@@H](O[C@H]5[C@H](O)[C@@H](OC)[C@@H](O[C@H]6[C@H](O)[C@@H](OC)[C@@H](O[C@H]7[C@H](O)[C@@H](OC)[C@@H](O[C@H]8[C@H](O)[C@@H](OC)[C@@H](O[C@H]1[C@H](O)[C@H]2OC)O[C@@H]8COC)O[C@@H]7COC)O[C@@H]6COC)O[C@@H]5COC)O[C@@H]4COC)O[C@@H]3COC |
| is not an inhibitor [-] | CCCC(OC(CCC)S(=O)(=O)O)S(=O)(=O)O.OC[C@H]1O[C@@H]2O[C@H]3[C@H](O)[C@@H](O)[C@@H](O[C@H]4[C@H](O)[C@@H](O)[C@@H](O[C@H]5[C@H](O)[C@@H](O)[C@@H](O[C@H]6[C@H](O)[C@@H](O)[C@@H](O[C@H]7[C@H](O)[C@@H](O)[C@@H](O[C@H]8[C@H](O)[C@@H](O)[C@@H](O[C@H]1[C@H](O)[C@H]2O)O[C@@H]8CO)O[C@@H]7CO)O[C@@H]6CO)O[C@@H]5CO)O[C@@H]4CO)O[C@@H]3CO |
| is not an inhibitor [-] | COC[C@@H]1O[C@H]2O[C@@H]3[C@@H](O)[C@H](O)[C@H](O[C@@H]4[C@@H](O)[C@H](O)[C@H](O[C@H]5[C@H](OC)[C@@H](O)[C@@H](O[C@@H]6[C@@H](O)[C@H](O)[C@H](O[C@@H]7[C@@H](O)[C@H](O)[C@H](O[C@@H]8[C@@H](O)[C@H](O)[C@H](O[C@@H]1[C@@H](O)[C@@H]2O)O[C@H]8COC)O[C@H]7COC)O[C@H]6COC)O[C@@H]5COC)O[C@H]4COC)O[C@H]3COC |
| is not an inhibitor [-] | CC(O)COC[C@H]1O[C@@H]2O[C@H]3[C@H](O)[C@@H](O)[C@@H](O[C@H]4[C@H](O)[C@@H](O)[C@@H](O[C@H]5[C@H](O)[C@@H](O)[C@@H](O[C@H]6[C@H](O)[C@@H](O)[C@@H](O[C@H]7[C@H](O)[C@@H](O)[C@@H](O[C@H]8[C@H](O)[C@@H](O)[C@@H](O[C@H]1[C@H](O)[C@H]2O)O[C@@H]8COCC(C)O)O[C@@H]7COCC(C)O)O[C@@H]6COCC(C)O)O[C@@H]5COCC(C)O)O[C@@H]4COCC(C)O)O[C@@H]3COCC(C)O (stereo partly drawn) [2-HYDROXYPROPYL-BETA-CYCLODEXTRIN] |
